Assays:
liver = settings: relative to anti-gonadotropic properties; cited from earlier work
bone [1] = settings: uniform active ingredient levels maintained in the blood; cited from earlier work
bone [2] = settings: postmenopausal women, very high oral dosages; cited from earlier work
[3] = women; cited from earlier work
[4] = Plasma estrogen levels after one-time oral administration in postmenopausal women; assay type: in vivo
Text: A “pool” of estrone sulfate is produced in the blood by EV. From the latter is released estrone by hydrolysis, a small proportion of which is in turn metabolized into estradiol. […] Estrone sulfate is in this case only the main metabolite of the estrogens that are produced from the sulfamate.

endometrium = test: Growth effect on the endometrium after daily low-dose treatment; assay type: in vivo, postmenopausal women; settings: daily 0.1 mg, at the end of treatment
ovariectomized rats = test: Oral estrogenic action in ovariectomized rats; assay type: in vivo
Protocol: (§1) These release-processes were ended after 24 hours.

[5] = Blood levels of estradiol and estrone in ovariectomized rats after oral treatment; assay type: in vivo
Protocol: as §1

[6] = Protocol: In the examples below, the determination of the plasma levels of the estrogens with validated methods that are known and acknowledged in the art was performed.

C#C[C@]1(O)CC[C@H]2[C@@H]3CCc4cc(O)ccc4[C@H]3CC[C@@]21C [EE, ethinylestradiol]
estrogenic activity in the liver compared with orally administered natural estrogens (liver): 4–18 times

C[C@]12CC[C@@H]3c4ccc(O)cc4CC[C@H]3[C@@H]1C[C@@H](O)[C@@H]2O [estriol]
action in the bone after ovariectomy (bone [1]): protective action in the bone
osteoprotective effect (bone [2]): not osteoporectively effective
half-life [3]: 1.5 to 5.3 h

estradiol sulfamate
estrone levels 24 hours after administration ([4]; one-time oral 2 mg, 24 hours, postmenopausal women): higher after estradiol sulfamate than after EV
estrone sulfate levels 48 hours after administration ([4]; one-time oral 2 mg, 48 hours, postmenopausal women): higher after estradiol sulfamate than after EV
estradiol blood levels one week after treatment ([4]; one-time oral 2 mg, one week, postmenopausal women): clearly exceed the starting values
increase of estrone sulfate levels in plasma ([4]; one-time oral 2 mg, postmenopausal women (FIG. 1)): increase
increase of estrone levels in plasma ([4]; one-time oral 2 mg, postmenopausal women (FIG. 2)): persists for a long time
level of estrogen sulfate in comparison to EV ([4]; oral use (FIG. 4)): very low in comparison to EV
release (surface under the curve) of estrone ([4]; oral use, compared with EV (FIG. 4)): altogether higher release
average estrone sulfate levels ([4]; three postmenopausal women, one-time 2 mg, over 600 hours (FIG. 5)): clear increase compared to the starting values
estrone sulfate increase compared with transdermal therapy ([4]; women, oral): behave comparably
induced estrone sulfate levels relative to estradiol valerate ([4]; women, oral, at comparable estrone and estradiol levels in the blood): about 10 times lower
growth effect on the endometrium relative to the starting value (endometrium): considerable growth effect on the endometrium
oral estrogenic action (ovariectomized rats; oral treatment): strong oral estrogenic action
extension of the estrogen actions (ovariectomized rats; very high dosages): did not result in an extension of the estrogen actions
blood levels of estradiol and estrone in comparison to estradiol in an equimolar dose [5]: higher and prolonged blood levels of estradiol and estrone
end of release processes (estradiol, estrone) [5]: ≤ 24 h
persistence of estrone sulfate increase in plasma after the last administration ([6]; daily 0.1 mg, after last of 14 administrations): had not yet disappeared even after six days
estrone levels in the plasma ([6]; in vivo): Relevant elevated estrone levels
estrone sulfate level at the end of the treatment ([6]; in vivo): clear increases
estrone sulfate level in the first 24 hours after beginning of treatment ([6]; in vivo): no clear increases

Reference: US7053077B1, “Use of biogenic estrogen sulfamates for hormone replacement therapy” (Schering AG, priority 1998, dated 2006)
